Data taken from PMC7761830, “Structure-Based Virtual Screening of Ultra-Large Library Yields Potent Antagonists for a Lipid GPCR” (Biomolecules, 2020).
Residue numbers refer to the chain shown, from its start. Where “and” joins values, the source holds several entries; their conditions need not be identical. Identical values can stand only once.

Experiments:
CysLT1R = conditions: CysLT1R; ChEMBL value; ref 29 (ChEMBL); cited from earlier work
CysLT2R = conditions: cited from earlier work; for pAct: CysLT2R, ChEMBL value, ref 29 (ChEMBL)
wild-type CysLT1R [1] = target: T1, wild-type CysLT1R (Homo sapiens, UniProt Q9Y271); test: IP1 production assay, antagonist mode, co-stimulation with EC80 LTD4; type: cell-based; conditions: for inhibition at 30 µM: HEK293, compound 30 µM, LTD4 at EC80, HEK293, wild-type CysLT1R, read-out: inhibition of LTD4-induced IP1 production, single-concentration screen; for Emax: HEK293, read-out: CysLT1R (LTD4) % Max Inhibition ± SEM; for extent of inhibition of LTD4-mediated response at CysLT1R (in words): antagonist mode, 1.5 to 100 µM
T1 construct: expressed in transfected cells; host or cells: HEK293 (ATCC CRL-1573), transient transfection with Lipofectamine 3000
T1 sequence (Q9Y271 1-337): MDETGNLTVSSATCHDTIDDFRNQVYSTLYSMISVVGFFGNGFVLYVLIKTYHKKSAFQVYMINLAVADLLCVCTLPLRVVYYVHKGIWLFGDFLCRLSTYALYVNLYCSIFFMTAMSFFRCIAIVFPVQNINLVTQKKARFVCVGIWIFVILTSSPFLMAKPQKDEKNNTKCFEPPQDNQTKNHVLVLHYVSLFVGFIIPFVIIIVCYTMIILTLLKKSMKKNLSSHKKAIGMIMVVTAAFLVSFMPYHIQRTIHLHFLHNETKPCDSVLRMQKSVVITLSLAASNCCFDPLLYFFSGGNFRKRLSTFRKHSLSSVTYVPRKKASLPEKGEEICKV

wild-type CysLT2R [2] = target: T2, wild-type CysLT2R (Homo sapiens, UniProt Q9NS75); test: as above; type: cell-based; conditions: for inhibition at 30 µM: HEK293, compound 30 µM, LTD4 at EC80, HEK293, wild-type CysLT2R, read-out: inhibition of LTD4-induced IP1 production, single-concentration screen; for Emax: HEK293, read-out: CysLT2R (LTD4) % Max Inhibition ± SEM
T2 construct: expressed in transfected cells; host or cells: HEK293 (ATCC CRL-1573), transient transfection with Lipofectamine 3000
T2 sequence (Q9NS75 1-346): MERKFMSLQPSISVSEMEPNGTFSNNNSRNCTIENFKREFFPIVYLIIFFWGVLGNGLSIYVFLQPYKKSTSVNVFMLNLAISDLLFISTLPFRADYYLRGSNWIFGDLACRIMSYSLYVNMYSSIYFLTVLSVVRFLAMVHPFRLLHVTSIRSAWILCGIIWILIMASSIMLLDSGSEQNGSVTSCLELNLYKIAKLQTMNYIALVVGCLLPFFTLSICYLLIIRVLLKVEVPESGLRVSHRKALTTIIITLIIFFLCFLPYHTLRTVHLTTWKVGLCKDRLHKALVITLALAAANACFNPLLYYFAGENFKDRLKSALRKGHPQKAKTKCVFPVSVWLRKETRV

wild-type CysLT1R [3] = target: T1, wild-type CysLT1R; test: IP1 production assay, antagonist mode, LTC4 (EC80) as agonist; type: cell-based; conditions: HEK293, wild-type CysLT1R, LTC4 at EC80; for Ki: functional Ki by Cheng-Prusoff, read-out: CysLT1R (LTC4) Ki ± SEM
Experimental: (§1) All 139 selected compounds were screened in a functional assay measuring IP1 production as an indicator of Gαq activation. For this assay, we used the Cisbio IP-One kit as previously described. Human Embryonic Kidney (HEK) 293 cells (ATCC CRL-1573) between passages 5 and 25 were seeded onto poly-L-Lysine-coated 384-well plates at 20,000 cells/well and transfected with 30 ng of cDNA coding for the wild-type CysLT1R or CysLT2R receptors or for the CysLT2R mutant L129Q, using the Lipofectamine 3000 (Thermo Fisher Scientific) transfection agent. At 48 h post-transfection, the media was removed and the cells were washed with fresh Hank’s Balanced Salt Solution (HBSS). […] First, all 139 selected compounds were screened at a 30 µM concentration in both the agonist and antagonist mode in cells transiently expressing the wildtype CysLT1R or CysLT2R receptors. […] For CysLT1R, the compounds retained were BRI-12328, BRI-12334, BRI-12359, BRI-12410, BRI-12411, BRI-12417, BRI-12424, BRI-12435, BRI-12450, and BRI-12458; for CysLT2R, these were BRI-12328, BRI-12334, BRI-12359, BRI-12401, BRI-12402, BRI-12405, BRI-12410, BRI-413, BRI-12417, BRI-12424, BRI-426, BRI-427, BRI-450, BRI-453, BRI-454, BRI-458, and BRI-466. These hits were again tested in the antagonist mode with compound concentrations ranging from 1.56 µM to 100 µM, at 2-fold concentration intervals. The three best hits (BRI-12359, BRI-417, and BRI-424) were also tested using the LTC4 ligand (EC80 concentration) and in cells transiently expressing the constitutively active CysLT2R mutant L129Q. […] After compound stimulation, the cells were incubated for 1 h at 37 °C and stimulated with IP1-D2 and Ab-Crypt reagents in Lysis Buffer. The cells were then incubated at room temperature for an additional hour. The plate was read on a Tecan Genios Pro plate reader using a HTRF (homogeneous time-resolved fluorescence) filter set (λex = 320 nm, λem = 620 and 655 nm). Normalized data were plotted using either the three-parameter or four-parameter EC50/IC50 fits of GraphPad Prism 8 (San Diego). […] Data represent the means ± SEM of at least three independent experiments performed in quadruplicate. For the additional antagonist experiments performed with BRI-12359, we performed Schild analysis in order to determine pA2 values.

wild-type CysLT2R [4] = target: T2, wild-type CysLT2R; test: as above; type: cell-based; conditions: HEK293, wild-type CysLT2R; LTC4 at EC80
Experimental: as §1

CysLT2R mutant L129Q = target: T3, CysLT2R mutant L129Q (Homo sapiens, UniProt Q9NS75, L129Q); test: IP1 production assay, constitutively active mutant, direct compound stimulation (inverse agonism); type: cell-based; conditions: for % max inhibition ± SEM of constitutive IP1 accumulation / IC50: HEK293 transiently expressing CysLT2R L129Q; for % max inhibition ± SEM of constitutive IP1 accumulation: WT non-stimulated = 0%, L129Q non-stimulated = 100%; for IC50: compound 1.6 to 100 μM, no agonist, read-out: IC50 ± SEM, inhibition of constitutive IP1 accumulation
T3 construct: expressed in transfected cells; host or cells: HEK293 (ATCC CRL-1573), transient transfection with Lipofectamine 3000
T3 sequence (Q9NS75 1-346 L129Q): T2 sequence (Q9NS75 1-346) with L129Q
Experimental: as §1
This effect would be particularly interesting in the case of the L129Q CysLT2R mutant identified in uveal melanoma patients. We tested these three compounds in the functional IP1 assay using cells transiently expressing the L129Q CysLT2R mutant, directly stimulated with a range of compound concentrations (1.6 to 100 μM).

CysLT1R-WT = target: T4, CysLT1R-WT (Homo sapiens, UniProt Q9Y271); test: IP1 production assay, Schild analysis: fixed BRI-12359 then range of LTD4; type: cell-based
T4 construct: expressed in transfected cells; host or cells: HEK293 (ATCC CRL-1573), transient transfection with Lipofectamine 3000
T4 sequence (Q9Y271 1-337): T1 sequence (Q9Y271 1-337)
Experimental: (§2) For this assay, we used the Cisbio IP-One kit as previously described. […] At 48 h post-transfection, the media was removed and the cells were washed with fresh Hank’s Balanced Salt Solution (HBSS). […] After compound stimulation, the cells were incubated for 1 h at 37 °C and stimulated with IP1-D2 and Ab-Crypt reagents in Lysis Buffer. The cells were then incubated at room temperature for an additional hour. […] Normalized data were plotted using either the three-parameter or four-parameter EC50/IC50 fits of GraphPad Prism 8 (San Diego). […] Data represent the means ± SEM of at least three independent experiments performed in quadruplicate.

CysLT2R-WT = target: T5, CysLT2R-WT (Homo sapiens, UniProt Q9NS75); test: as above; type: cell-based
T5 construct: expressed in transfected cells; host or cells: HEK293 (ATCC CRL-1573), transient transfection with Lipofectamine 3000
T5 sequence (Q9NS75 1-346): T2 sequence (Q9NS75 1-346)
Experimental: as §2

Compound | pAct (CysLT2R) | Ki (wild-type CysLT1R [1]) | remaining activity at 30 µM (wild-type CysLT1R [1]) | inhibition at 30 µM (wild-type CysLT1R [1]) | Emax (wild-type CysLT1R [1]) | extent of inhibition of LTD4-mediated response at CysLT1R (in words) (wild-type CysLT1R [1]) | remaining activity at 30 µM (wild-type CysLT2R [2]) | inhibition at 30 µM (wild-type CysLT2R [2]) | Emax (wild-type CysLT2R [2]) | CysLT1R (LTC4) % Max Inhibition ± SEM (wild-type CysLT1R [3]) | Ki (wild-type CysLT1R [3]) | CysLT2R (LTC4) % Max Inhibition ± SEM (wild-type CysLT2R [4]) | % max inhibition ± SEM of constitutive IP1 accumulation (CysLT2R mutant L129Q) | IC50 (CysLT2R mutant L129Q) | further results
O=C(O)CCCN1CC(c2nnn[nH]2)Oc2c(C=Cc3ccc(OCCCCc4ccccc4)cc3)cccc21 (stereo not drawn) [CHEMBL3403186, C(CCOc1ccc(C=Cc2cccc3c2OC(CN3CCCC(O)=O)c2nnn[nH]2)cc1)Cc1ccccc1] | 8.5 | – | – | – | – | – | – | – | – | – | – | – | – | – | pAct (CysLT1R): 9.2
NC(=O)c1ccccc1Oc1ccc(NC(=O)c2ccc3nc(C(F)(F)F)cn3c2)cc1 [BRI-12417] | – | 3100 ± 630 nM | 54.7% | ≥ 50% | 100 ± 17% | completely inhibit | 74.4% | < 50% | 54 ± 6% | 83 ± 14% | 700 nM and 680 nM | 32 ± 5% | 59 ± 12% | 30000 to 40000 nM and 38000 nM | –
O=C(O)c1ccc(OCCCc2ccc(OCCCCOc3ccccc3)cc2)c(C(=O)NC2CCCC(C(=O)O)C2)c1 (stereo not drawn) [CHEMBL3342945] | – | – | – | – | – | – | – | – | – | – | – | – | – | – | IC50 (CysLT2R; activity of the ligand from ChEMBL, ref ChEMBL, read-out: IC50 (CysLT2)): 53 nM
Cn1c(-c2ccc(NC(=O)c3cccc(OCC(=O)O)c3)cc2)nc2ccccc21 [BRI-12424] | – | 220 ± 30 nM | 50.8% | ≥ 50% | 71 ± 19% | partial antagonism | 79.7% | < 50% | 7 ± 5% | 52 ± 9% | 180 ± 30 nM | 9 ± 5% | 21 ± 10% | – | –
O=C(O)CCCN1CC(C(=O)NS(=O)(=O)c2ccccc2)Oc2c(NC(=O)c3ccc(OCCCCc4ccccc4)cc3)cccc21 (stereo not drawn) [CHEMBL3401691, C(CCOc1ccc(cc1)C(Nc1cccc2c1OC(CN2CCCC(O)=O)C(NS(c1ccccc1)(=O)=O)=O)=O)Cc1ccccc1] | 8.2 | – | – | – | – | – | – | – | – | – | – | – | – | – | –
NC(=O)c1ccsc1NC(=O)CSc1nnc(-c2c[nH]c3ccccc23)o1 [BRI-12359] | – | 1030 ± 280 nM | 5.59% | – | 121 ± 13% | completely inhibit | 36.2% | ≥ 50% | 92 ± 15% | 105 ± 7% | 700 nM and 720 nM | 65 ± 11% | 82 ± 11% | 30000 to 40000 nM and 32000 nM | Ki (wild-type CysLT2R [2]): 6460 ± 430 nM; extent of inhibition of LTD4-induced response at CysLT2R (in words) (wild-type CysLT2R [2]; antagonist mode, 1.5 to 100 µM): fully abolished; inhibition of IP1 production by CysLT2R L129Q mutant (in words) (CysLT2R mutant L129Q; 100 μM compound): practically full inhibition; Kb (CysLT1R-WT): 340 ± 90 nM; pA2 ± SEM (CysLT1R-WT; Schild analysis, CysLT1R-WT, LTD4): 6.5 ± 0.1 −log; Kb (CysLT2R-WT): 105000 ± 37000 nM; pA2 ± SEM (CysLT2R-WT; Schild analysis, CysLT2R-WT, LTD4): 4.0 ± 0.2 −log
